# Values of other authors in US12691049B2, “Process for producing hair treatment products by mixing organic C1-C6-alkoxysilanes and alkalizing agents in specific molar ratios” (Henkel AG & Co. KGaA, priority 2021, dated 2026).
Compound,solubility in water (25° C.),further results
CCN(Cc1cccc(S(=O)(=O)[O-])c1)c1ccc(C(=C2C=CC(=[N+](CC)Cc3cccc(S(=O)(=O)[O-])c3)C=C2)c2ccccc2S(=O)(=O)[O-])cc1.[Na+].[Na+] [Acid Blue 9],,water solubility (25° C.): more than 20 wt %
"O=S(=O)([O-])c1ccc(N=Nc2c(O)ccc3ccccc23)cc1.[Na+] [Acid Orange 7, sodium salt of 4-[(2-hydroxy-1-naphthyl)azo]benzene sulphonate]",more than 7 g/L,
"Nc1cc(S(=O)(=O)[O-])cc2cc(S(=O)(=O)[O-])c(N=Nc3ccccc3)c(O)c12.[Na+].[Na+] [Acid Red 33, disodium salt of 5-amino-4-hydroxy-3-(phenylazo)-naphthalene-2,7-disulfonate]",2.5 mg/mL,
"O=C([O-])c1c(Cl)c(Cl)c(Cl)c(Cl)c1-c1c2cc(Br)c(=O)c(Br)c-2oc2c(Br)c([O-])c(Br)cc12.[Na+].[Na+] [Acid Red 92, disodium salt of 3,4,5,6-tetrachloro-2-(1,4,5,8-tetrabromo-6-hydroxy-3-oxanthene-9-yl) benzoic acid]",greater than 10 g/L,
"O=C([O-])C1=NN(c2ccc(S(=O)(=O)[O-])cc2)C(=O)C1N=Nc1ccc(S(=O)(=O)[O-])cc1.[Na+].[Na+].[Na+] (stereo not drawn) [Acid Yellow 23, trisodium salt of 4,5-dihydro-5-oxo-1-(4-sulfophenyl)-4-((4-sulfophenyl)azo)-1H-pyrazole-3-carboxylic acid]",,solubility in water (in words) (at 25° C.): readily soluble in water
"mixture of the sodium salts of mono and sis-sulfonic acids of 2-(2-quinolyl)-1H-indene-1,3(2H)-dione [Acid Yellow 3]",20 mg/mL,
